Experimental findings from PMC7807878, “Development of an engineered peptide antagonist against periostin to overcome doxorubicin resistance in breast cancer” (BMC Cancer, 2021) are described below.

Where no end group is shown, it is not given here. The star is where a group is joined. FITC = O=C1OC2(c3ccc(O)cc3Oc3cc(O)ccc32)c2ccc(NC(=S)*)cc21

For assay [1], the system named is rPN. Nature of the assay: Dot blot, FITC-peptide binding to rPN. The following applies: 500 ng rPN, 4 °C overnight, fluorescence. The text has this: (§1) After selecting the best binding sequence of 12-amino acids peptides, 2 types of peptide would be synthesized, plain peptide and peptide conjugated with fluorescein isothiocyanate (FITC). For the synthesis of the latter, a spacer region ([…]) would be added at the C-terminal end of the peptide and FITC was conjugated with the side chain of lysine. Finally, C-terminal amidation would be performed. The synthesis of plain and FITC-labelled anti PN peptides was ordered from Syn Peptide company (Shanghai, China). FITC-labelled anti-PN peptide tested binding affinity to non-denaturing cell lysate of transfected BCA cells and their mock transfected cells and rPN by dot blot analysis. Briefly, 12.5 μg of cell lysate or 500 ng of rPN in 1 μl was applied onto nitrocellulose membrane. The membrane was blocked with 5% BSA followed by peptide incubation at 4 °C overnight and the fluorescent signal was detected the next day using the G:BOX gel documentation system. The checking of anti-PN peptide binding to intact PN-transfected BCA cells was also performed with similar process as immunocytochemistry plus a step of cell membrane permeabilizing after fixation by incubated with 1% Triton X for 1 min at RT. […] The observation was viewed under confocal microscope using laser diode 488 nm.

The target of assay [2] is T1, BSA (Bos taurus, UniProt P02769). In words: Dot blot, FITC-peptide binding to BSA. As to conditions: BSA negative control, fluorescence.
Source text: as §1

The test system of assay [3] is PN-transfected BCA cells. Nature of the assay: Immunocytochemistry, FITC-peptide binding to permeabilized PN-transfected BCA cells. The assay is classed as cell-based. The following applies: 2 μM FITC-peptide, 1 h at RT, 1% Triton X permeabilized, confocal microscope; PN-transfected vs mock.
Source text: as §1

In assay [4] the test system is non-denaturing cell lysate of PN-transfected BCA cells (MDA-MB-231 and MCF-7). In words: Dot blot, FITC-peptide binding to non-denaturing cell lysate of PN-transfected BCA cells. As to conditions: 12.5 μg cell lysate, 4 °C overnight, fluorescence, vs mock.
Source text: as §1

In assay [5] the target is T1, BSA. In words: Isothermal titration calorimetry, binding to BSA (negative control). As to conditions: ITC. The text has this:
The physical properties of this peptide would be determined by an online tool (https://www.thermofisher.com) (Thermo Fisher Scientific). Structure of this peptide and the binding properties to PN would be predicted by PEP-FOLD3 [34] and pepATTRACT [35] tools from RPBS Web Portal (https://bioserv.rpbs.univ-paris-diderot.fr) using PN 3D-structure from RCSB PDB database (https://www.rcsb.org/structure/5YJG). […] The procedure followed the instructions for the machine. The results would be determined by the measurement of the exothermic energy after intermittent injection into the cell compartment and reported as the binding affinity constant (KD).
On the technique in general: ITC needs no label: the signal is the heat of the interaction.

Assay [6] concerns MDA-MB-231 cells. In words: Drug sensitivity (MTS), MDA-MB-231. The format is cell-based. The following applies: Homo sapiens, MDA-MB-231, 48 h, MTS. As to the method: (§2) Determination the IC50 of BCA cells in response to chemotherapeutic drugs was analyzed by MTS assay. The experiment started from 5 × 10^3 of BCA cells in 100 μl medium that were seeded in 96-well plates for 24 h, then media was changed with different concentrations of new chemotherapeutic drugs [doxorubicin (S1208), paclitaxel (S1150), cisplatin (S1166), 5-fluorouracil (5-FU) (S1209) and gemcitabine (S1714) that were purchased from Selleck Chemicals, Houston, TX, USA] with or without rPN and anti-PN peptide for a further 48 h. After that, cell viability was determined by the MTS assay. Combination index (CI) was calculated by IC50 of combination of drug and PN or anti-PN peptide divided by IC50 of chemotherapeutic drug alone.
(§3) ANOVA test or Student’s t-test were applied for statistical analysis of the experiments. GraphPad Prism® version 7.04 software (GraphPad Software, San Diego, CA, USA) was used in calculation of IC50 values of chemotherapeutic drugs and PASW Statistics software version 18 (SPSS, IBM, Armonk, NY, USA) was used for other analysis. Dose-responses were compared by Holm-Sidak’s multiple comparison test. Mann-Whitney ranked-sum test was used for comparisons between normal and patient serum PN. Chi-square or Fisher’s exact test were used to determine the correlation between PN expression and clinical data in BCA patients. Kaplan-Meier Log-rank test using Kaplan-Meier Plotter online tool (https://kmplot.com/) was performed to determine the correlation between PN expression and survival time of BCA patients by online database. P-values of < 0.05 were used as statistical significance.

In assay [7] the test system is MCF-7 cells. Nature of the assay: Drug sensitivity (MTS), MCF-7. The assay is classed as cell-based. As to conditions: Homo sapiens, MCF7, 48 h, MTS. As to the method:
as §2, §3

T1 sequence (P02769 25-607): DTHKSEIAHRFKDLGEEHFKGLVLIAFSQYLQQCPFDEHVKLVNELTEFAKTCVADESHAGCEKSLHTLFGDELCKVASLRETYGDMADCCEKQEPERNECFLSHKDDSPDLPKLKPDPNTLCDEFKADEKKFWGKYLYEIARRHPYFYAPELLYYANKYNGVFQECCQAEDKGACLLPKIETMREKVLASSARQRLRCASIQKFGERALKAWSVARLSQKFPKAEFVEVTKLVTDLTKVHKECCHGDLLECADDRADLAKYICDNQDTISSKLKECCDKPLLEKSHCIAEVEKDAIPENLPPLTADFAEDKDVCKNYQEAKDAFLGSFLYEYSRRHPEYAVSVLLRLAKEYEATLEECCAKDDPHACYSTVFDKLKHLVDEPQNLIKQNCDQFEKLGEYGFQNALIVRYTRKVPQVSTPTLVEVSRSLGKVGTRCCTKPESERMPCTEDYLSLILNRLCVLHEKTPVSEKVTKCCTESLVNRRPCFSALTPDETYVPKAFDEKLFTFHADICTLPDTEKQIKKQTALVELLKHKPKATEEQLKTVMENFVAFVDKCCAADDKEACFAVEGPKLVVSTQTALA

As for “FITC-labelled anti-PN peptide (TFATHGKHWAAPGGGSCK(FITC)-NH2; N-terminus assumed; SMILES C[C@H](NC(=O)[C@H](Cc1c[nH]c2ccccc12)NC(=O)[C@H](Cc1c[nH]cn1)NC(=O)[C@H](CCCCN)NC(=O)CNC(=O)[C@H](Cc1c[nH]cn1)NC(=O)[C@@H](NC(=O)[C@H](C)NC(=O)[C@H](Cc1ccccc1)NC(=O)[C@@H](N)[C@@H](C)O)[C@@H](C)O)C(=O)N[C@@H](C)C(=O)N1CCC[C@H]1C(=O)NCC(=O)NCC(=O)NCC(=O)N[C@@H](CO)C(=O)N[C@@H](CS)C(=O)N[C@@H](CCCCNC(=S)Nc1ccc2c(c1)C(=O)OC21c2ccc(O)cc2Oc2cc(O)ccc21)C(N)=O)”, the “Peptide binding to rPN” value in assay [1] was “markedly increased in rPN”. Further, the “Peptide binding to BSA” value in assay [2] is “no signal in BSA”. Also, the “Peptide binding in permeabilized cells” value in assay [3] is on record as “confirmed by immunocytochemistry staining in permeabilized cells”. Moreover, the “Peptide binding to PN-transfected cell lysate” value in assay [4] is listed as “higher in both PN-transfected BCA cells compared with their mock control cells”.
Take TFATHGKHWAAP [anti-PN peptide]: the “Binding affinity to BSA” value in assay [5] is recorded as “could not be determined in BSA”.
Turning to `COc1cccc2c1C(=O)c1c(O)c3c(c(O)c1C2=O)C[C@@](O)(C(=O)CO)C[C@@H]3O[C@H]1C[C@H](N)[C@H](O)[C@H](C)O1` [doxorubicin], the IC50 amounted to 797 nM in assay [6] (doxorubicin with anti-PN peptide, PN-transfected MDA-MB-231, 48 h, P-value = 0.002); 706 nM in assay [6] (doxorubicin with anti-PN peptide, mock transfected MDA-MB-231, 48 h, P-value = 0.932); 1090 nM in assay [6] (doxorubicin, PN-transfected MDA-MB-231, 48 h, P-value < 0.001 vs mock); 896 nM in assay [6] (doxorubicin, anti-PN peptide treated MDA-MB-231 without rPN, 48 h, P-value = 0.870); 710 nM in assay [6] (doxorubicin, mock transfected MDA-MB-231, 48 h); 1300 nM in assay [6] (doxorubicin, rPN + anti-PN peptide treated MDA-MB-231, 48 h, P-value = 0.038). Besides, the IC50 in assay [6] (doxorubicin, rPN-treated MDA-MB-231, 48 h, P-value = 0.024) was 1990 nM; in assay [6] (doxorubicin, untreated control MDA-MB-231 (rPN treatment experiment), 48 h), 845 nM; in assay [7] (doxorubicin with anti-PN peptide, PN-transfected MCF-7, 48 h, P-value = 0.007), 970 nM; in assay [7] (doxorubicin, PN-transfected MCF-7, 48 h, P-value = 0.013 vs mock) it was 1440 nM; in assay [7] (doxorubicin, anti-PN peptide treated MCF-7 without rPN, 48 h, P-value = 0.558) it was 1040 nM; in assay [7] (doxorubicin, mock transfected MCF-7, 48 h) it was 1070 nM. In addition, the IC50 is 1270 nM in assay [7] (doxorubicin, rPN + anti-PN peptide treated MCF-7, 48 h, P-value = 0.038); 1460 nM in assay [7] (doxorubicin, rPN-treated MCF-7, 48 h, P-value = 0.007); 1050 nM in assay [7] (doxorubicin, untreated control MCF-7 (rPN treatment experiment), 48 h).

A word on the IC50: it is the concentration at which inhibition is half-maximal.
